According to PMC8480776, “Selenium Derivatives as Promising Therapy for Chagas Disease: In Vitro and In Vivo Studies” (ACS Infectious Diseases, 2021):
Read-outs that look alike come from different tables or passages of the source.

Assays:
Vero cells = test: Cytotoxicity test on Vero cells; assay type: cell-based; details: Chlorocebus sabaeus, 48 h + 24 h resazurin, read-out: Toxicity IC50 Vero cell
Trypanosoma cruzi Fe-SOD = test: SOD enzymatic inhibition, Fe-SOD; assay type: biochemical
[1] = tested on: T. cruzi trypomastigotes, Arequipa strain; test: Screening against bloodstream trypomastigotes, Arequipa strain; assay type: cell-based, Trypanosoma cruzi
[2] = tested on: T. cruzi epimastigotes, SN3 strain; test: Screening against extracellular epimastigotes, SN3 strain; assay type: cell-based, Trypanosoma cruzi
[3] = tested on: T. cruzi trypomastigotes, Tulahuen strain; test: Screening against bloodstream trypomastigotes, Tulahuen strain; assay type: cell-based, Trypanosoma cruzi
[4] = tested on: T. cruzi trypomastigotes, SN3 strain; test: Screening against bloodstream trypomastigotes, SN3 strain; assay type: cell-based, Trypanosoma cruzi
[5] = tested on: T. cruzi amastigotes, Tulahuen strain; test: Screening against intracellular amastigotes, Tulahuen strain; assay type: cell-based, Trypanosoma cruzi
[6] = tested on: T. cruzi epimastigotes, Arequipa strain; test: Screening against extracellular epimastigotes, Arequipa strain; assay type: cell-based, Trypanosoma cruzi
[7] = tested on: Vero cells infected with T. cruzi Arequipa strain; test: Infection rate in Vero cells (infected cells), Arequipa strain; assay type: cell-based; details: Trypanosoma cruzi, 72 h of treatment
[8] = tested on: T. cruzi amastigotes, SN3 strain; test: Screening against intracellular amastigotes, SN3 strain; assay type: cell-based, Trypanosoma cruzi
[9] = tested on: epimastigotes of T. cruzi Arequipa strain; test: Flow cytometry analysis of nucleic acid levels (acridine orange); assay type: cell-based, Trypanosoma cruzi; details: IC25 concentrations, 72 h
[10] = tested on: T. cruzi epimastigotes, Tulahuen strain; test: Screening against extracellular epimastigotes, Tulahuen strain; assay type: cell-based, Trypanosoma cruzi
[11] = assay type: in vivo, BALB/c mice; details: variation vs control
Method: (§1) Female BALB/c mice aged 10–12 weeks and with a size of 20–24 g were divided into five groups (n = 3 per group): 0, negative control group (uninfected and untreated mice); I, positive control group (infected and untreated mice); II, BZN group (infected mice treated with BZN); III, 26 group (infected mice treated with 26); and IV, 28 group (infected mice treated with 28).
(§2) The tested selenocompounds and BZN were prepared at 2 mg·mL^–1 in an aqueous suspension vehicle containing 5% (v/v) DMSO and 0.5% (w/v) hydroxypropyl methylcellulose, as previously reported.[52] Compounds (20 mg·kg^–1 per day) were administered for 5 consecutive days (total dosages of 100 mg·kg^–1), and vehicle only was administered in the negative and positive control groups. Treatments began when the infection was confirmed (9 dpi) for acute-phase-treated mice, and when it was established that the animals moved into the chronic phase (100 dpi, for chronic-phase-treated mice; Scheme 1).
Serum samples obtained from blood in several days post-infection (Scheme 1) were sent to the Biochemical Service (University of Granada) to measure a series of biochemical parameters with the commercial Cromakit using a clinical chemistry analyzer (BS-200, Shenzhen Mindray Biomedical Electronics Co., LTD), as previously described.[41]

T. cruzi Arequipa strain = test: In vivo trypanocidal activity on BALB/c mice (acute and chronic Chagas disease); set-up: species or system Trypanosoma cruzi
Method: as §1
Mice were infected by intraperitoneal injection of 5 × 10^5 BTs of T. cruzi Arequipa strain per mouse in 200 μL PBS.[42] Subsequently, the treatment was intraperitoneally administered (∼200 μL) once daily for 5 consecutive days.
as §2
[…]. Parasitemia was expressed as parasites·mL^–1.
Immunosuppression was performed by intraperitoneal injection of three doses of 200 mg·kg^–1 of ISOPAC CP at 3–4 day intervals (Scheme 1), as previously reported.[53] Mice were closely monitored for side effects or for secondary infections due to immunosuppression. Within 7 days after the last CP injection, parasitemia reactivation was determined by counting BTs according the procedure described for parasitemia in the acute phase.[42]
On 145 dpi, the mice were euthanized using CO2, followed by exsanguination via cardiac puncture, and blood was collected. […]. In addition, spleens were weighed to assess splenomegaly.[42]
DNA extraction of the post-mortem organs/tissues was performed using Wizard Genomic DNA Purification Kit,[41] and the extracted DNA was subjected to amplification by PCR based on the spliced leader (SL) intergenic region sequence of T. cruzi (for detailed description, see literature reported previously).[55] Finally, the PCR products were resolved by electrophoresis on a 2% agarose gel (containing GelRed nucleic gel stain) for 90 min at 90 V.
Circulating antibodies in serum against both antigens were quantitatively evaluated in triplicate by the ELISA test in 96-well plates using diluted serum samples (1:80 in PBS), as previously described.[41]

[12] = tested on: T. cruzi amastigotes, Arequipa strain; test: Screening against intracellular amastigotes, Arequipa strain; assay type: cell-based, Trypanosoma cruzi
[13] = target: T1, human erythrocytes CuZn-SOD (Homo sapiens, UniProt P00441); test: SOD enzymatic inhibition, CuZn-SOD; assay type: biochemical
T1 construct: commercial copper/zinc superoxide dismutase (Cu/Zn-SOD) from human erythrocytes (Sigma-Aldrich); purchased Sigma-Aldrich; host or cells: human erythrocytes (natural source)
T1 sequence (P00441 whole entry): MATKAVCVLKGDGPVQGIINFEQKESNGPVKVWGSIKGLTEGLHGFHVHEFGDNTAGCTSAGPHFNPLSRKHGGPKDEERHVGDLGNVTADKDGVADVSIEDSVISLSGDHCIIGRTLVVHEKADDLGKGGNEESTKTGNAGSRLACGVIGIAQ

[14] = IC50 Vero cells/IC50 trypomastigotes
[15] = IC50 Vero cells/IC50 epimastigotes
[16] = IC50 Vero cells/IC50 amastigotes
[17] = treatment in acute phase, 15th dpi (2 days after treatment)
[18] = treatment in acute phase, necropsy day
[19] = treatment in chronic phase, 106th dpi (2 days after treatment)
[20] = treatment in chronic phase, necropsy day
[21] = 20 mg·kg–1 per day i.p. 5 days from 9 dpi
[22] = 20 mg·kg–1 per day i.p. 5 days from 100 dpi

N#C[Se]c1ccc(NC(=O)c2ccco2)cc1 [Compound 28]
CC50 (Vero cells): 89.3 ± 7.5 µM
IC50 (Trypanosoma cruzi Fe-SOD): 9.4 µM
selectivity index (SI), Arequipa strain, trypom. forms [1, 14]: 50
IC50 ([1]; Trypanosoma cruzi, bloodstream trypomastigotes, 24 h + 4 h resazurin, read-out: activity IC50, Arequipa strain, trypom. forms): 1.8 ± 0.1 µM
Selectivity index (SI), epimastigotes, SN3 strain [2, 15]: 24
IC50 ([2]; Trypanosoma cruzi, 48 h + 24 h resazurin, read-out: Activity IC50, epimastigote form, SN3 strain): 3.8 ± 0.4 µM
selectivity index (SI), Tulahuen strain, trypom. forms [3, 14]: 50
IC50 ([3]; Trypanosoma cruzi, TULAHUEN, bloodstream trypomastigotes, 24 h + 4 h resazurin, read-out: activity IC50, Tulahuen strain, trypom. forms): 1.8 ± 0.2 µM
selectivity index (SI), SN3 strain, trypom. forms [4, 14]: 53
IC50 ([4]; Trypanosoma cruzi, bloodstream trypomastigotes, 24 h + 4 h resazurin, read-out: activity IC50, SN3 strain, trypom. forms): 1.7 ± 0.2 µM
selectivity index (SI), Tulahuen strain, am. forms [5, 16]: 33
IC50 ([5]; Trypanosoma cruzi, TULAHUEN, amastigotes in Vero cells, 72 h, read-out: activity IC50, Tulahuen strain, am. forms): 2.7 ± 0.3 µM
Selectivity index (SI), epimastigotes, Arequipa strain [6, 15]: 19
IC50 ([6]; Trypanosoma cruzi, 48 h + 24 h resazurin, read-out: Activity IC50, epimastigote form, Arequipa strain): 4.8 ± 0.4 µM
IC50 [7]: 19.7 µM
selectivity index (SI), SN3 strain, am. forms [8, 16]: 53
IC50 ([8]; Trypanosoma cruzi, amastigotes in Vero cells, 72 h, read-out: activity IC50, SN3 strain, am. forms): 1.7 ± 0.4 µM
inhibition of nucleic acid levels [9]: 62%
Selectivity index (SI), epimastigotes, Tulahuen strain [10, 15]: 19
IC50 ([10]; Trypanosoma cruzi, TULAHUEN, 48 h + 24 h resazurin, read-out: Activity IC50, epimastigote form, Tulahuen strain): 4.6 ± 0.3 µM
ALP (liver marker) [11, 17]: + (+/-, 10-20% increase/decrease over the range)
ALT/GPT (liver marker) [11, 17]: ++ (++/--, 20-30% increase/decrease over the range)
AST/GOT (liver marker) [11, 17]: ++ (++/--, 20-30% increase/decrease over the range)
CK-MB (heart marker) [11, 17]: ++++ (++++/----, ˃ 40% increase/decrease over the range)
LDH (heart marker) [11, 17]: - (+/-, 10-20% increase/decrease over the range)
Total bilirubin (liver marker) [11, 17]: ++ (++/--, 20-30% increase/decrease over the range)
Urea (kidney marker) [11, 17]: -- (++/--, 20-30% increase/decrease over the range)
Uric acid (kidney marker) [11, 17]: ---- (++++/----, ˃ 40% increase/decrease over the range)
ALP (liver marker) [11, 18]: + (+/-, 10-20% increase/decrease over the range)
ALT/GPT (liver marker) [11, 18]: ++ (++/--, 20-30% increase/decrease over the range)
AST/GOT (liver marker) [11, 18]: + (+/-, 10-20% increase/decrease over the range)
CK-MB (heart marker) [11, 18]: = (=, variation ≤ 10%)
LDH (heart marker) [11, 18]: = (=, variation ≤ 10%)
Total bilirubin (liver marker) [11, 18]: = (=, variation ≤ 10%)
Urea (kidney marker) [11, 18]: = (=, variation ≤ 10%)
Uric acid (kidney marker) [11, 18]: - (+/-, 10-20% increase/decrease over the range)
ALP (liver marker) [11, 19]: + (+/-, 10-20% increase/decrease over the range)
ALT/GPT (liver marker) [11, 19]: + (+/-, 10-20% increase/decrease over the range)
AST/GOT (liver marker) [11, 19]: = (=, variation ≤ 10%)
CK-MB (heart marker) [11, 19]: ++ (++/--, 20-30% increase/decrease over the range)
LDH (heart marker) [11, 19]: = (=, variation ≤ 10%)
Total bilirubin (liver marker) [11, 19]: = (=, variation ≤ 10%)
Urea (kidney marker) [11, 19]: = (=, variation ≤ 10%)
Uric acid (kidney marker) [11, 19]: = (=, variation ≤ 10%)
ALP (liver marker) [11, 20]: = (=, variation ≤ 10%)
ALT/GPT (liver marker) [11, 20]: = (=, variation ≤ 10%)
AST/GOT (liver marker) [11, 20]: + (+/-, 10-20% increase/decrease over the range)
CK-MB (heart marker) [11, 20]: + (+/-, 10-20% increase/decrease over the range)
LDH (heart marker) [11, 20]: = (=, variation ≤ 10%)
Total bilirubin (liver marker) [11, 20]: = (=, variation ≤ 10%)
Urea (kidney marker) [11, 20]: = (=, variation ≤ 10%)
Uric acid (kidney marker) [11, 20]: = (=, variation ≤ 10%)
anti-T. cruzi IgG levels (ELISA), acute phase treatment (T. cruzi Arequipa strain; [21]): lower IgG values than the treated with BZN at the beginning of the treatment
splenomegaly reduction in comparison with untreated mice, acute phase treatment (T. cruzi Arequipa strain; [21]): 37%
parasitaemia reactivation after immunosuppression, acute phase treatment (T. cruzi Arequipa strain; 20 mg·kg–1 per day i.p. 5 days from 9 dpi, compared to untreated group): approximately 95%
anti-T. cruzi IgG levels (ELISA), chronic phase treatment (T. cruzi Arequipa strain; [22]): similar
splenomegaly reduction in comparison with untreated mice, chronic phase treatment (T. cruzi Arequipa strain; [22]): 48%
parasitaemia reactivation after immunosuppression, chronic phase treatment (T. cruzi Arequipa strain; 20 mg·kg–1 per day i.p. 5 days from 100 dpi, compared to untreated group): ~85%
parasite levels in target organs/tissues by PCR (in words) (T. cruzi Arequipa strain; 20 mg·kg–1 per day i.p. 5 days, necropsy 145 dpi): did not decrease enough parasite levels in the analyzed tissues
parasitaemia profile during the acute phase (T. cruzi Arequipa strain; 20 mg·kg–1 per day i.p. for 5 days from 9 dpi): slight antiparasitic activity over the first month
selectivity index (SI), Arequipa strain, am. forms [12, 16]: 28
IC50 ([12]; Trypanosoma cruzi, amastigotes in Vero cells, 72 h, read-out: activity IC50, Arequipa strain, am. forms): 3.2 ± 0.4 µM
IC50 [13]: > 100 µM
